By pIC50 is commonly meant −log10 of the IC50, conventionally taken in molar units. High values mean a low IC50, low ones a high IC50.

The record followed here is ChEMBL document CHEMBL1127286, “Quantitative structure-activity relationships study of endothelin-1 analogs” (Bioorg Med Chem Lett, 1994).

For experiment [1], the target named is T1, Endothelin-1 receptor (Rattus norvegicus) (UniProt P26684).
T1 sequence (whole entry): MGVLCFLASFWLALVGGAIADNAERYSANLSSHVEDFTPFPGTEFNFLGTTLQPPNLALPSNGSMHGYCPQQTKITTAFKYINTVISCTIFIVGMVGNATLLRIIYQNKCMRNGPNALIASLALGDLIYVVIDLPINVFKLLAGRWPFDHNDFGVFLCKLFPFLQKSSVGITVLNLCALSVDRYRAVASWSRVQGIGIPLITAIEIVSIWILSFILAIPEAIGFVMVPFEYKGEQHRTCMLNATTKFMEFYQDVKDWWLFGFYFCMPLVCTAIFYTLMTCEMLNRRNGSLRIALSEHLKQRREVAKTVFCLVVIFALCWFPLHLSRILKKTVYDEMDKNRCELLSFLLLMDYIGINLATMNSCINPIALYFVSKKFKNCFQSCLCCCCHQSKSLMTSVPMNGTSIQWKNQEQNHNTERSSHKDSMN
As to the kind of experiment: Concentration required to produce 50% inhibition of binding against ET A receptor obtained from rat thoracic aortic membrane.

The target of experiment [2] is T2, Endothelin receptor type B (Rattus norvegicus) (UniProt P21451).
T2 sequence (whole entry): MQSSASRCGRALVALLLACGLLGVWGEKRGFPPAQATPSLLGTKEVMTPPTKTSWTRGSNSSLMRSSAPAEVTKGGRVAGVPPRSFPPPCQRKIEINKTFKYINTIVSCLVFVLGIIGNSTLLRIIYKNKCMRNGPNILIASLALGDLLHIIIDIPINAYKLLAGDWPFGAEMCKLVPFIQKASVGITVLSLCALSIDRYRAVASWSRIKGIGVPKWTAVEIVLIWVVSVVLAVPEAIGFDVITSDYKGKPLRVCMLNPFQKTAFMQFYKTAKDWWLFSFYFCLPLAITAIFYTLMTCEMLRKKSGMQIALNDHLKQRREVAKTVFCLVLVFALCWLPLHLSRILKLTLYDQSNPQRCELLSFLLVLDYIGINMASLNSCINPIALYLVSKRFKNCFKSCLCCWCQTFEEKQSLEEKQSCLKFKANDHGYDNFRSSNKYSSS
The experiment can be described thus: Concentration required to produce 50% inhibition of binding against ET B receptor obtained from rat brain membrane.

Consider `CC[C@@H](C)[C@H](NC(=O)[C@H](CC(=O)O)NC(=O)[C@H](CC(C)C)NC(=O)[C@H](Cc1c[nH]cn1)NC(=O)[C@H](CS)NC(=O)[C@H](Cc1ccccc1)NC(=O)[C@H](Cc1ccc(O)cc1)NC(=O)[C@@H](NC(=O)[C@H](CS)NC(=O)[C@H](CCC(=O)O)NC(=O)[C@H](CCCCN)NC(=O)[C@H](CC(=O)O)NC(=O)[C@H](CCSC)NC(=O)[C@H](CC(C)C)NC(=O)[C@H](CO)NC(=O)[C@H](CO)NC(=O)[C@H](CS)NC(=O)[C@H](CO)NC(=O)[C@@H](N)CS)C(C)C)C(=O)N[C@H](CC(C)C)C(=O)N[C@@H](Cc1c[nH]c2ccccc12)C(=O)O`, for which the pIC50 was found to be 7.97 in experiment [1] and 9.94 in experiment [2].

In experiment [1], `CC[C@@H](C)[C@H](NC(=O)[C@H](CC(=O)O)NC(=O)[C@H](CC(C)C)NC(=O)[C@H](Cc1c[nH]cn1)NC(=O)[C@H](CS)NC(=O)[C@H](Cc1ccccc1)NC(=O)[C@H](Cc1ccc(O)cc1)NC(=O)[C@@H](NC(=O)[C@H](CS)NC(=O)[C@H](CCC(=O)O)NC(=O)[C@H](CCCCN)NC(=O)[C@H](CC(=O)O)NC(=O)[C@H](CCSC)NC(=O)[C@H](CC(C)C)NC(=O)[C@H](CO)NC(=O)[C@H](CO)NC(=O)[C@H](CS)NC(=O)[C@H](CO)NC(=O)[C@@H](N)CS)C(C)C)C(=O)N[C@H](C(=O)N[C@@H](Cc1c[nH]c2ccccc12)C(=O)O)[C@H](C)CC` returned a pIC50 of 9.93.

Regarding `CCC[C@@H](NC(=O)[C@@H](NC(=O)[C@H](CC(=O)O)NC(=O)[C@H](CC(C)C)NC(=O)[C@H](Cc1c[nH]cn1)NC(=O)[C@H](CS)NC(=O)[C@H](Cc1ccccc1)NC(=O)[C@H](Cc1ccc(O)cc1)NC(=O)[C@@H](NC(=O)[C@H](CS)NC(=O)[C@H](CCC(=O)O)NC(=O)[C@H](CCCCN)NC(=O)[C@H](CC(=O)O)NC(=O)[C@H](CCSC)NC(=O)[C@H](CC(C)C)NC(=O)[C@H](CO)NC(=O)[C@H](CO)NC(=O)[C@H](CS)NC(=O)[C@H](CO)NC(=O)[C@@H](N)CS)C(C)C)[C@H](C)CC)C(=O)N[C@@H](Cc1c[nH]c2ccccc12)C(=O)O`, the pIC50 in experiment [1] is 7.6; in experiment [2] it was 10.

For `CC[C@@H](C)[C@H](NC(=O)[C@H](CC(=O)O)NC(=O)[C@H](CC(C)C)NC(=O)[C@H](Cc1c[nH]cn1)NC(=O)[C@H](CS)NC(=O)[C@H](Cc1ccccc1)NC(=O)[C@H](Cc1ccc(O)cc1)NC(=O)[C@@H](NC(=O)[C@H](CS)NC(=O)[C@H](CCC(=O)O)NC(=O)[C@H](CCCCN)NC(=O)[C@H](CC(=O)O)NC(=O)[C@H](CCSC)NC(=O)[C@H](CC(C)C)NC(=O)[C@H](CO)NC(=O)[C@H](CO)NC(=O)[C@H](CS)NC(=O)[C@H](CO)NC(=O)[C@@H](N)CS)C(C)C)C(=O)N[C@H](CCC(N)=O)C(=O)N[C@@H](Cc1c[nH]c2ccccc12)C(=O)O`, the pIC50 in experiment [1] is 5.27; in experiment [2], 5.59.

For the compound `CC[C@@H](C)[C@H](NC(=O)[C@H](CC(=O)O)NC(=O)[C@H](CC(C)C)NC(=O)[C@H](Cc1c[nH]cn1)NC(=O)[C@H](CS)NC(=O)[C@H](Cc1ccccc1)NC(=O)[C@H](Cc1ccc(O)cc1)NC(=O)[C@@H](NC(=O)[C@H](CS)NC(=O)[C@H](CCC(=O)O)NC(=O)[C@H](CCCCN)NC(=O)[C@H](CC(=O)O)NC(=O)[C@H](CCSC)NC(=O)[C@H](CC(C)C)NC(=O)[C@H](CO)NC(=O)[C@H](CO)NC(=O)[C@H](CS)NC(=O)[C@H](CO)NC(=O)[C@@H](N)CS)C(C)C)C(=O)N[C@@H](C(=O)N[C@@H](Cc1c[nH]c2ccccc12)C(=O)O)C1CCCCC1`, the pIC50 in experiment [1] amounted to 7.04; in experiment [2], 9.59.

`CC[C@@H](C)[C@H](NC(=O)[C@H](CC(=O)O)NC(=O)[C@H](CC(C)C)NC(=O)[C@H](Cc1c[nH]cn1)NC(=O)[C@H](CS)NC(=O)[C@H](Cc1ccccc1)NC(=O)[C@H](Cc1ccc(O)cc1)NC(=O)[C@@H](NC(=O)[C@H](CS)NC(=O)[C@H](CCC(=O)O)NC(=O)[C@H](CCCCN)NC(=O)[C@H](CC(=O)O)NC(=O)[C@H](CCSC)NC(=O)[C@H](CC(C)C)NC(=O)[C@H](CO)NC(=O)[C@H](CO)NC(=O)[C@H](CS)NC(=O)[C@H](CO)NC(=O)[C@@H](N)CS)C(C)C)C(=O)N[C@@H](Cc1c[nH]c2ccccc12)C(=O)N[C@@H](Cc1c[nH]c2ccccc12)C(=O)O`: the values for the pIC50 in experiment [1] and in experiment [2] were 6.71 and 9.77, respectively.

Turning to `CC[C@@H](C)[C@H](NC(=O)[C@H](CC(=O)O)NC(=O)[C@H](CC(C)C)NC(=O)[C@H](Cc1c[nH]cn1)NC(=O)[C@H](CS)NC(=O)[C@H](Cc1ccccc1)NC(=O)[C@H](Cc1ccc(O)cc1)NC(=O)[C@@H](NC(=O)[C@H](CS)NC(=O)[C@H](CCC(=O)O)NC(=O)[C@H](CCCCN)NC(=O)[C@H](CC(=O)O)NC(=O)[C@H](CCSC)NC(=O)[C@H](CC(C)C)NC(=O)[C@H](CO)NC(=O)[C@H](CO)NC(=O)[C@H](CS)NC(=O)[C@H](CO)NC(=O)[C@@H](N)CS)C(C)C)C(=O)N[C@@H](C(=O)N[C@@H](Cc1c[nH]c2ccccc12)C(=O)O)c1ccccc1`, the pIC50 in experiment [1] was 6.85; in experiment [2] it was 8.6.

In the case of `CC[C@@H](C)[C@H](NC(=O)[C@H](CC(=O)O)NC(=O)[C@H](CC(C)C)NC(=O)[C@H](Cc1c[nH]cn1)NC(=O)[C@H](CS)NC(=O)[C@H](Cc1ccccc1)NC(=O)[C@H](Cc1ccc(O)cc1)NC(=O)[C@@H](NC(=O)[C@H](CS)NC(=O)[C@H](CCC(=O)O)NC(=O)[C@H](CCCCN)NC(=O)[C@H](CC(=O)O)NC(=O)[C@H](CCSC)NC(=O)[C@H](CC(C)C)NC(=O)[C@H](CO)NC(=O)[C@H](CO)NC(=O)[C@H](CS)NC(=O)[C@H](CO)NC(=O)[C@@H](N)CS)C(C)C)C(=O)N[C@H](Cc1ccccc1)C(=O)N[C@@H](Cc1c[nH]c2ccccc12)C(=O)O`, the figures for the pIC50 in experiment [1] and in experiment [2] were 6.07 and 8.6, respectively.

As for `CC[C@@H](C)[C@H](NC(=O)[C@H](CC(=O)O)NC(=O)[C@H](CC(C)C)NC(=O)[C@H](Cc1c[nH]cn1)NC(=O)[C@H](CS)NC(=O)[C@H](Cc1ccccc1)NC(=O)[C@H](Cc1ccc(O)cc1)NC(=O)[C@@H](NC(=O)[C@H](CS)NC(=O)[C@H](CCC(=O)O)NC(=O)[C@H](CCCCN)NC(=O)[C@H](CC(=O)O)NC(=O)[C@H](CCSC)NC(=O)[C@H](CC(C)C)NC(=O)[C@H](CO)NC(=O)[C@H](CO)NC(=O)[C@H](CS)NC(=O)[C@H](CO)NC(=O)[C@@H](N)CS)C(C)C)C(=O)N[C@@H](C(=O)N[C@@H](Cc1c[nH]c2ccccc12)C(=O)O)C(C)C`, the pIC50 in experiment [1] came out at 9; in experiment [2], 9.05.

Consider `CC[C@@H](C)[C@H](NC(=O)[C@H](CC(=O)O)NC(=O)[C@H](CC(C)C)NC(=O)[C@H](Cc1c[nH]cn1)NC(=O)[C@H](CS)NC(=O)[C@H](Cc1ccccc1)NC(=O)[C@H](Cc1ccc(O)cc1)NC(=O)[C@@H](NC(=O)[C@H](CS)NC(=O)[C@H](CCC(=O)O)NC(=O)[C@H](CCCCN)NC(=O)[C@H](CC(=O)O)NC(=O)[C@H](CCSC)NC(=O)[C@H](CC(C)C)NC(=O)[C@H](CO)NC(=O)[C@H](CO)NC(=O)[C@H](CS)NC(=O)[C@H](CO)NC(=O)[C@@H](N)CS)C(C)C)C(=O)N[C@H](C(=O)N[C@@H](Cc1c[nH]c2ccccc12)C(=O)O)C1CCCCC1`, for which the pIC50 in experiment [1] amounted to 9.88; in experiment [2], 10.

On to `CC[C@@H](C)[C@H](NC(=O)[C@H](CC(=O)O)NC(=O)[C@H](CC(C)C)NC(=O)[C@H](Cc1c[nH]cn1)NC(=O)[C@H](CS)NC(=O)[C@H](Cc1ccccc1)NC(=O)[C@H](Cc1ccc(O)cc1)NC(=O)[C@@H](NC(=O)[C@H](CS)NC(=O)[C@H](CCC(=O)O)NC(=O)[C@H](CCCCN)NC(=O)[C@H](CC(=O)O)NC(=O)[C@H](CCSC)NC(=O)[C@H](CC(C)C)NC(=O)[C@H](CO)NC(=O)[C@H](CO)NC(=O)[C@H](CS)NC(=O)[C@H](CO)NC(=O)[C@@H](N)CS)C(C)C)C(=O)N[C@@H](C(=O)N[C@@H](Cc1c[nH]c2ccccc12)C(=O)O)[C@H](C)CC`, for which, in experiment [1], the pIC50 is 7.59.

On to `CC[C@@H](C)[C@H](NC(=O)[C@H](CC(=O)O)NC(=O)[C@H](CC(C)C)NC(=O)[C@H](Cc1c[nH]cn1)NC(=O)[C@H](CS)NC(=O)[C@H](Cc1ccccc1)NC(=O)[C@H](Cc1ccc(O)cc1)NC(=O)[C@@H](NC(=O)[C@H](CS)NC(=O)[C@H](CCC(=O)O)NC(=O)[C@H](CCCCN)NC(=O)[C@H](CC(=O)O)NC(=O)[C@H](CCSC)NC(=O)[C@H](CC(C)C)NC(=O)[C@H](CO)NC(=O)[C@H](CO)NC(=O)[C@H](CS)NC(=O)[C@H](CO)NC(=O)[C@@H](N)CS)C(C)C)C(=O)N[C@H](Cc1c[nH]cn1)C(=O)N[C@@H](Cc1c[nH]c2ccccc12)C(=O)O`, for which the pIC50 in experiment [1] came out at 6.13; in experiment [2], 7.55.

Take `CCC(CC)C[C@@H](NC(=O)[C@@H](NC(=O)[C@H](CC(=O)O)NC(=O)[C@H](CC(C)C)NC(=O)[C@H](Cc1c[nH]cn1)NC(=O)[C@H](CS)NC(=O)[C@H](Cc1ccccc1)NC(=O)[C@H](Cc1ccc(O)cc1)NC(=O)[C@@H](NC(=O)[C@H](CS)NC(=O)[C@H](CCC(=O)O)NC(=O)[C@H](CCCCN)NC(=O)[C@H](CC(=O)O)NC(=O)[C@H](CCSC)NC(=O)[C@H](CC(C)C)NC(=O)[C@H](CO)NC(=O)[C@H](CO)NC(=O)[C@H](CS)NC(=O)[C@H](CO)NC(=O)[C@@H](N)CS)C(C)C)[C@H](C)CC)C(=O)N[C@@H](Cc1c[nH]c2ccccc12)C(=O)O`: the pIC50 stood at 8.06 in experiment [1] and 9.78 in experiment [2].
